{"source": "patent US20020102533A1", "about": "“Hepatitis C protease exosite for inhibit or design” (priority 2000, published 2002)", "key": {"HCV protease 2A": {"molecular_target": "T1, HCV protease 2A (Hepatitis C virus genotype 2a, UniProt P26660)", "T1 construct": "the catalytic domains of types 1b, 1J and 2a have also been examined", "assay": "HCV protease type 2a, 13-mer substrate", "type": "biochemical", "text": "It is understood that other forms of HCV protease may be used in an assay for the determination of inhibitors. The present invention has disclosed the 1A form of HCV protease, however, the catalytic domains of types 1b, 1J and 2a have also been examined, as well as, the full-length version of form 1b. Evidence for the exosite exists in each case. Activation by Q9692 follows the trend of activation by NS4a. Forms of the enzyme that are more sensitive to NS4a display greater stimulation by Q9692 than forms that are less sensitive. In rank order sensitivity is 1J, 1B, 1A, and 2A. The catalytic activity of 2A toward the 9-mer substrate is enhanced by only 1.5-fold at 4 μM Q9692 and becomes inhibited by Q9692 at concentrations greater than 20 μM. […] Use of alternative forms of the HCV protease is relevent to development of an inexpensive and easy continous assay."}, "HCV protease (NS3)": {"molecular_target": "T2, HCV protease (NS3) (Hepatitis C virus genotype 1a, UniProt P26664)", "T2 construct": "NS3 protease catalytic domain (amino acids 1 to 192); MGAQH expression leader (5 aa), or alternatively the 15 aa His tag MRGSHHHHHHMGAQH; made in house; host or cells: E. coli BL21 (DE3)", "type": "binding", "experimental": "Intrinsic fluorescence studies: Assays were conducted in 0.5 ml fluorescent cuvettes (0.4 ml total volume). […] Fluorescence spectra were obtained by exiting at 280 nm (10 nm slit) and scanning the emission profile from 300 to 400 nm (10 nm slit) at 1 nm s^−1.\nFluorescence spectrum of HCV protease (0.45 μM) in 50 mM Tris buffer, pH 7.0, containing 15% glycerol, and 0.10% maltoside were measured over a range of 300-400 nm using an excitation wavelength of 280 nm. Both excitation and emission slit widths were 10 nm and the scan rate was 1.0 nm sec^−1."}, "[1]": {"molecular_target": "T3, HCV NS3 protease, genotype 1a (Hepatitis C virus genotype 1a, UniProt P26664)", "T3 construct": "NS3 protease catalytic domain (amino acids 1 to 192); MGAQH expression leader (5 aa), or alternatively the 15 aa His tag […]; made in house; host or cells: E. coli BL21 (DE3)", "type": "biochemical", "conditions": "P6-P3′ amide substrate", "experimental": "(§1) Endpoint HPLC based HCV protease assay: HCV protease (5 nM) was incubated in 50 mM Tris pH 7.5, 0.1% maltoside, 5 mM DTT and appropriate amounts of glycerol, NS4A peptide, and substrate. Routine assays were 100 μl in volume containing 15% or 50% glycerol, 5.0 μM NS4A peptide and 5.0 μM substrate. Reactions were run at room temperature (˜22° C.) and quenched by the addition of 4 μl of 10% TFA before 10% of the substrate was consumed. Incubation times were 20 minutes for the ester substrate (Peptide Substrate A) and 80 minutes for the P6-P7′ amide substrate (Peptide Substrate B). […] Incubation times were 90 min. Samples, 50 μl, were injected onto an Hewlett Packard 1090 Liquid Chromatograph containing a Dynamax-60A C18 column. The column was eluted with a linear gradient from 10% acetonitrile to 45% acetonitrile in water. All solvents contained 0.1% TFA. A flow rate of 1 ml/min was used. […] The product peaks were detected by fluorescence excitation at 350 nm and emission at 500 nm.\nComparison of the effects of Q9692 on the hydrolysis of a P6-P3′ ester substrate (FIG. 2A) and a P6-P7′ substrate (FIG. 2B) and P6-P3′ amide substrate (FIG. 2C) were determined. […] Hydrolysis products were quantitated by measuring fluorescent peak areas following HPLC and detection by excitation at 350 nm and measuring emission at 500 nm. […]"}, "[2]": {"molecular_target": "T3, HCV NS3 protease, genotype 1a", "type": "biochemical", "experimental": "as §1\nFootnote a for Table 1 references the assay condiditions: 1) Substrate A=P6-P3′, HCV protease (4.0 nM) was incubated with various concentrations of truncated analogs of Q9692 in 50 mM Tris buffer, pH 7.0, 15% glycerol, 0.1% maltoside, 5 mM DTT and 10 μM NS4A peptide in a 96-well microtiter plate at room temperature. After 15 minutes catalysis was initiated by the addition of Ac-D-E-D(EDANS)-E-E-Abuψ[COO]-A-S-K(DABCYL)—NH2 (final concentration 5.0 μM in a total reaction volume of 200 μl). Enzymatic activity was monitored by measuring the increase in fluorescence with time on a Perkin Elmer LS50B luminescence spectrometer (excitation 350 nm, emission 500 nm, both slits 10 nm). […] Assays were 100 μl in volume, reactions were run at room temperature (˜22 C) for 80 minutes (<10% of the substrate was consumed). The addition of 4 μl of 10% TFA quenched the reactions. Quantitation of hydrolysis products was determined by measuring fluorescent peak areas following HPLC. Products were detected by excitation at 350 nm and measuring emission at 500 nm. Aliquots (50 μl) of quenched enzymatic reactions were injected on an Hewlett Packard 1090 HPLC equipped with a ¼ inch Dynamex 60A C18 column. A linear gradient from 10% acetonitrile:H2O to 45% acetonitrile:H2O was run over a period of 15 min at a flow rate of 1.0 ml/min. All solvents contained 0.1% TFA.\nComparison of the effects of Q9692 on the hydrolysis of a P6-P3′ ester substrate (FIG. 2A) and a P6-P7′ substrate (FIG. 2B) and P6-P3′ amide substrate (FIG. 2C) were determined. For substrates A and B1 Concentrations of Q9692 are 0 (circles), 1 μM (squares), 2 μM (diamonds) and 4 μM (triangles). Assay conditions: HCV protease (5 nM) was incubated in 50 mM Tris buffer at pH 7.0, 15% glycerol, 0.1% maltoside, 5 mM DTT, 10 μM NS4A peptide, and specified concentration of substrate. Assays were 100 μl in volume and reactions were run at room temperature (22 C) and quenched by the addition of 4 μl of 10% TFA before 10% of the substrate was consumed. Incubation times were 20 minutes for the ester substrate and 80 minutes for the amide substrate. Hydrolysis products were quantitated by measuring fluorescent peak areas following HPLC and detection by excitation at 350 nm and measuring emission at 500 nm. Aliquots (50 μl) of quenched enzymatic reactions were injected on an Hewlett Packard 1090 HPLC equipped with a ¼ inch Dynamex 60A C18 column."}, "[3]": {"molecular_target": "T3, HCV NS3 protease, genotype 1a", "type": "biochemical", "conditions": "P6-P3′ ester substrate, NS4a=0, relative to controls without Q9692"}, "HCV protease": {"molecular_target": "HCV protease (Hepatitis C virus genotype 1b, UniProt P26663)", "conditions": "read-out: inhibitor of HCV protease (potency); 13 residue substrate spanning P6-P7′; cited from earlier work"}}, "note": "pKi: −log10 of the molar value. Entries after “also recorded” stand apart in the source; their conditions may differ. Where a SMILES comes first, the peptide text is derived from it. [ ]: non-standard residue; d: D form. Dip = N[C@H](C(=O)O)C(c1ccccc1)c1ccccc1; Cha = N[C@@H](CC1CCCCC1)C(=O)O", "data": [{"smiles": "CC(=O)N[C@@H](CC(=O)O)C(=O)N[C@@H](CCC(=O)O)C(=O)N[C@H](C(=O)N[C@@H](CCC(=O)O)C(=O)N[C@@H](CC1CCCCC1)C(=O)N[C@@H](CS)C(=O)O)C(c1ccccc1)c1ccccc1", "note": "[Q9692, Ac-Asp-Glu-Dpa-Glu-Cha-Cys—OH] (Ac-DE[Dip]E[Cha]C-OH)", "values": [{"measurement": "pKi", "setting": "HCV protease 2A", "result": "~6.60"}, {"measurement": "further increase in intrinsic fluorescence", "setting": "HCV protease (NS3); 5.0 μM added after 12.5 μM NS4a", "result": 70, "unit": "%"}, {"measurement": "effect on fluorescence spectrum", "setting": "HCV protease (NS3); in the absence of NS4a", "result": "little effect"}, {"measurement": "effect on intrinsic fluorescence", "setting": "HCV protease (NS3); in the presence of NS4a", "result": "near doubling of intrinsic fluorescence; also recorded: nearly doubles the intrinsic fluorescence; also recorded: large increase in fluorescence"}, {"measurement": "inhibition pattern", "setting": "[1]", "result": "mixed inhibition"}, {"measurement": "Dixon plots of 1/V versus Q9717 concentration", "setting": "[2]; 5 μM substrate spanning P6-P7′", "result": "intersecting lines"}, {"measurement": "mode of action", "setting": "[2]; P6-P7′ substrate, double reciprocal plots", "result": "competitive inhibitor"}, {"measurement": "(S = P6-P7′) Inhibition (+) / Activation (−)", "setting": "[2]; substrate B", "result": "+"}, {"measurement": "relative activity of the protease", "setting": "[3]", "result": "~1"}, {"measurement": "pKi", "setting": "HCV protease", "result": 7.30}]}]}
